# According to US10398696B2, “Combinations for treatment of cancer” (Stichting Het Nederlands Kanker Instituut-Antoni van …, priority 2013, dated 2019):
# Columns and labels:
# SW837 colon cells = test: long-term proliferation assay, SW837; type: cell-based; conditions: MEK inhibitor selumetinib (FIG. 3)
# H358 lung cells = test: long-term proliferation assay, H358; type: cell-based; conditions: MEK inhibitor selumetinib (FIG. 2)
# Procedure: FIG. 1 Suppression of ERBB3 by shRNA enhances response to MEK inhibitor. H358 KRAS mutant (Non-Small Cell Lung Cancer (NSCLC) cells were infected with two independent shRNAs targeting ERBB3 as indicated. pLKO vector serves as a control vector. After puromycin selection, cells were cultured in the absence or presence of 1 μM selumetinib for 20 days.
# FIG. 2 […] lung cancer cells were cultured in increasing concentration of MEK inhibitor selumetinib alone, EGFR inhibitor gefitinib alone, ERBB2 inhibitor CP724714 alone, EGFR/ERBB2 dual inhibitor afatinib, EGFR/ERBB2 dual inhibitor dacomitinib alone or their combinations as indicated. Cells were harvested, fixed and stained after 21 days.
# Recently the use of a kinome-centered synthetic lethal screening approach, which enables the identification of kinases whose inhibition is strongly synergistic with a cancer drug of interest has been described (Prahallad et al., 2012). […] Each of these knockdown vectors has a unique DNA-based molecular bar code identifier, which allows quantification of the relative abundance of each of the shRNA vectors in the presence and absence of drug (Prahallad et al., 2012). […] After 21 days, genomic DNA was isolated from both cells of the treated and untreated populations and the bar codes contained in the shRNA cassettes were recovered by PCR and their abundance determined by deep sequencing. […]
compound,measurement,setting,value
COc1cc2ncnc(Nc3ccc(F)c(Cl)c3)c2cc1NC(=O)/C=C/CN1CCCCC1 [dacometinib],synergy with MEK inhibition in long-term proliferation assays,SW837 colon cells,strong synergy
same,synergy with MEK inhibition in long-term proliferation assays,H358 lung cells,strong synergy
